Experiments:
[1] = tested on: MDA-MB-231 cells; experiment: Growth assay of MDA-MB-231 cells with ODC inhibitor (DFMO) and 1 μM spermidine; conditions: for R, ratio of IC50 in the absence of DFMO over IC50 in the presence of DFMO: MDA growth assay; for IC50: read-out: IC50 for growth in combination with ODC inhibitor (DFMO), 230 μM DFMO; for IC50 / IC50 with DFMO, result in words: 1 μM spermidine; for concentration added to culture media at which growth inhibition due to 1202 and DFMO begins to reverse: cells treated with 1202 and DFMO
Method: The estrogen insensitive human breast carcinoma MDA-MB-231 cell line as the primary cell line in the screen. […] In order to optimize the screen for polyamine transport inhibition, 1.0 μM spermidine was added to media to reverse the effects of ODC inhibitors. The assay was also performed over seven days because this allows for the greatest dynamic range in cell growth due to the mechanism of ODC inhibitors. Cells need to divide several times before the intracellular level of polyamines begin to decrease to growth inhibitory levels.
Compounds were tested for their ability to inhibit cell growth in the presence of 1 μM spermidine and 230 μM ODC inhibitor for the MDA-MB-231 cells or 1 mM ODC inhibitor for the PC3 cells.
In our six day growth assays, 1202 was tested at increasing concentrations with the optimal concentration of DFMO.

[2] = tested on: polyamine transporter (PATr); experiment: Polyamine transport (PAT) inhibition assay, 3H-spermidine uptake into MDA-MB-231 cells; assay type: cell-based, human; conditions: for Ki: MDA-MB-231 cells
Method: The radiometric assay uses radiolabeled polyamines such as putrescine, spermidine or spermine, but, due to the low signal, large numbers of adherent or non-adherent cells are required. Additional care is required with spermine due to its nonspecific adsorption to cells and plastics. Cells are mixed with the test compounds and the radiolabeled polyamine to initiate the assay. The cells are incubated for 1–60 minutes, depending on cell type. The assay is terminated by removal of the medium and cooling the plates to 4° C. The cells are then washed with cold medium three times, dissolved in 0.1% sodium dodecyl sulfate and the radioactivity in solution is then determined by scintillation counting. This assay is difficult to scale up to a high throughput procedure due to the low signal from the radiolabel and the handling requirements inherent in procedures with radioactivity.
Therefore, the growth assay and a kinetic transport assay have been used to validate transport inhibition.
The polyamine analogues and derivatives of the invention may be evaluated for their ability to inhibit the uptake of spermidine into MDA cells in culture. Joro spider toxin JSTx-3 is available from Calbiochem; 1-Naphthylacetylspermine is available from RBI. Deoxyspergualin was a generous gift from Paul Gladstone.
300 nM 1202 was the maximum concentration tested in initial rate transport assays.

[3] = tested on: MDA breast carcinoma cells; experiment: Rescue from DFMO-induced growth inhibition of MDA cells without added polyamines, six day growth assay; assay type: cell-based, human; conditions: absence of polyamines
Method: An additional series of spermine amides were evaluated to extend the structure-activity relationship around this polyamine transport target.
Growth assays were done over a six day period in order to allow for polyamine depletion within cells. When synthesis of polyamines is inhibited, cells compensate by increasing transport of extracellular polyamines into the cell. Over the time course of the assay, polyamines in the culture media may be depleted resulting in growth inhibition.

[4] = tested on: cancer cells; conditions: cited from earlier work

SMILES	IC50 [1] [nM]	Ki [2] [nM]	other results
NCCCNCCCCNCCCNC(=O)CCCCCNS(=O)(=O)c1ccc(CNC(=O)c2ccc(Cl)cc2)s1 [Compound 5, N^1-[(N^6-5-(4-chlorobenzamidomethyl)-thiophene-2-sulfonyl)-6-aminocaproyl]spermine]			R, ratio of IC50 in the absence of DFMO over IC50 in the presence of DFMO [1]: 210
NCCCNCCCCNCCCNC(=O)CCCCCNS(=O)(=O)c1ccc2oc3ccccc3c2c1 [Compound 6]			R, ratio of IC50 in the absence of DFMO over IC50 in the presence of DFMO [1]: 220
NCCCNCCCCNCCCNC(=O)Cc1cccc2ccccc12 [Compound 1022, 1-Naphthylacetylspermine, reference compound]	8300	230	
N=C(N)NCCCCCCC(=O)NC(O)C(=O)NCCCCNCCCN (stereo not drawn) [Compound 1085, deoxyspergualin, reference compound]		81	
NCCCCCC(=O)NCCCNCCCCNCCCN [Compound 1094, N^1-[6-aminocaproylspermine]]		69	rescue of cells from growth inhibitory effects of DFMO [3]: able to rescue
NCCCNCCCCNCCCNC(=O)C(N)Cc1c[nH]c2ccccc12 [Compound 1095, N^1-Spermine-L-tryptophanyl amide]	15000	162	
CC(=O)NCCCNCCCCNCCCN [Compound 1110, N^1-acetylspermine, reference compound]		162	greater affinity for the transport system than spermidine ([2]; Ki versus Km of spermidine): 3 fold
NCCCNCCCCNCCC(=O)NCCCCCNC(=O)[C@H](CC(N)=O)NC(=O)Cc1ccc(O)cc1O [Compound 1111, reference compound]		190	
NCCCNCCCCNCCCNC(=O)CN [Compound 1125, N^1-Spermine-glycinyl amide]		87	IC50 with DFMO, result in words [1]: failed to give effective IC50 values; rescue of cells from growth inhibitory effects of DFMO [3]: able to rescue
NCCCNCCCCNCCCNC(=O)C(N)CC(N)=O [Compound 1131, N^1-Spermine-L-asparaginyl amide]		32	
NCCCNCCCCNCCCNC(=O)C(N)CCC(N)=O [Compound 1154, N^1-Spermine-L-glutaminyl amide]		47	IC50 with DFMO, result in words [1]: failed to give effective IC50 values
CC(C)C(N)C(=O)NCCCNCCCCNCCCN [Compound 1157, N^1-Spermine-L-valinyl amide]	16000	84	rescue of cells from growth inhibitory effects of DFMO [3]: not able to rescue
NCCCNCCCCNCCCNC(=O)[C@@H]1CCCN1 [Compound 1159, N^1-Spermine-L-prolinyl amide]	5000	38	rescue of cells from growth inhibitory effects of DFMO [3]: able to rescue
CC(C)(C)OC(=O)NCCCNCCCCNCCCN [Compound 1163, N^1-boc-spermine]		83	
CSCCC(N)C(=O)NCCCNCCCCNCCCN [Compound 1164, N^1-Spermine-L-methionyl amide]		34	IC50 with DFMO, result in words [1]: failed to give effective IC50 values
NCCCNCCCCNCCCNC(=O)C(N)Cc1ccc(O)cc1 [Compound 1173, N^1-Spermine-L-tyrosinyl amide]		77	
NCCCNCCCCNCCCNC(=O)CCN [Compound 1177, N^1-Spermine-β-alanyl amide]		71	IC50 with DFMO, result in words [1]: failed to give effective IC50 values

SMILES	IC50 [1] [nM]	Ki [2] [nM]	other results
CC(N)C(=O)NCCCNCCCCNCCCN [Compound 1178, N^1-Spermine-L-alanyl amide]		244	
NCCCNCCCCNCCCNC(=O)C(N)CO [Compound 1187, N^1-Spermine-L-serinyl amide]	26000	45	
CC(C)(C)C(N)C(=O)NCCCNCCCCNCCCN [Compound 1194, N^1-Spermine-L-^tbutylglycinyl amide]	11000	212	
CC(C)C(N)C(=O)NCCCNCCCCNCCCN [Compound 1196, N^1-Spermine-D-valinyl amide]	9000	48	
CC(O)C(N)C(=O)NCCCNCCCCNCCCN [Compound 1207, N^1-Spermine-L-threoninyl amide]	6000	130	
NCCCNCCCCNCCCNC(=O)CC12CC3CC(CC(C3)C1)C2 [Compound 1212, N^1-Spermine 2-(1-adamantyl)acetamide]	9000		
CC(C)(N)C(=O)NCCCNCCCCNCCCN [Compound 1220, N^1-Spermine-α-aminoisobutyryl amide]	8000	160	
NCCCNCCCCNCCCNC(=O)C(N)CCCN [Compound 1224, N^1-Spermine-L-ornithyl amide]	3000	47	rescue of cells from growth inhibitory effects of DFMO [3]: not able to rescue
NCCCNCCCCNCCCNC(=O)C(N)CC1CCCCC1 [Compound 1227, N^1-Spermine-L-cyclohexanealanyl amide]		241	
CCC(C)C(N)C(=O)NCCCNCCCCNCCCN [Compound 1228, N^1-Spermine-L-isoleucinyl amide]	9000	124	
CC(C)CC(N)C(=O)NCCCNCCCCNCCCN [Compound 1230, N^1-Spermine-L-leucinyl amide]		32	IC50 with DFMO, result in words [1]: failed to give effective IC50 values
NCCCNCCCCNCCCNC(=O)C12CC3CC(CC(C3)C1)C2 [Compound 1235, N^1-spermine 1-adamantylamide]		1140	
NCCCNCCCCNCCCNC(=O)C(N)Cc1c[nH]c2ccccc12 [Compound 1309, N^1-Spermine-D-tryptophanyl amide]		26	
NCCCCN [PUT, putrescine, reference compound]			concentration added to culture media at which growth inhibition due to 1202 and DFMO begins to reverse [1]: greater than 10 μM
NCCCNCCCCNCCCN [SPM, spermine, reference compound]			concentration added to culture media at which growth inhibition due to 1202 and DFMO begins to reverse [1]: 1 µM
NCCCCN(CCCN)CCCNC(=O)CCCc1ccc(N(CCCl)CCCl)cc1 [chlorambucil-spermidine conjugate]			increase in cytotoxicity compared to chlorambucil alone [4]: ≤ 225 fold
NCCCCNCCCN [spermidine, reference compound]			concentration added to culture media at which growth inhibition due to 1202 and DFMO begins to reverse [1]: 1 µM; Km ([2]; MDA cells, read-out: Km for the transport system): 0.52 µM
